One block for each compound: values may come before it.
Tests used:
Experiment in all cases: radiometric filter-binding kinase assay
BRSK2 (human) = BRSK2 (human) (UniProt Q8IWQ3)
MAPKAPK3 (human) = MAPKAPK3 (human) (UniProt Q16644)
HIPK1 (human) = HIPK1 (human) (UniProt Q86Z02)
TBK1 (human) = TBK1 (human) (UniProt Q9UHD2)
MKNK2 (human) = MKNK2 (human) (UniProt Q9HBH9)
PLK1 (human) = PLK1 (human) (UniProt P53350)
PAK7 (human) = PAK7 (human) (UniProt Q9P286)
[1] = test system: AKT1 (human), P31749 [S473D]
CSNK1D (human) = CSNK1D (human) (UniProt P48730)
MAPK9 (human) = MAPK9 (human) (UniProt P45984)
RPS6KA5 KD1 KD2 (human) = RPS6KA5 KD1 KD2 (human) (UniProt O75582)
FGFR1 (human) = FGFR1 (human) (UniProt P11362)
[2] = test system: PAK2 (human), Q13177 [T402E]
BTK (human) = BTK (human) (UniProt Q06187)
AURKA (human) = AURKA (human) (UniProt O14965); conditions: compound 10.0 µM
IKBKB (human) = IKBKB (human) (UniProt O14920)
MAPK1 (human) = MAPK1 (human) (UniProt P28482)
MAPK15 (human) = MAPK15 (human) (UniProt Q8TD08)
GSK3B (human) = GSK3B (human) (UniProt P49841)
CSK (human) = CSK (human) (UniProt P41240)
SRPK1 (human) = SRPK1 (human) (UniProt Q96SB4)
NEK6 (human) = NEK6 (human) (UniProt Q9HC98)
HIPK3 (human) = HIPK3 (human) (UniProt Q9H422)
ERBB4 (human) = ERBB4 (human) (UniProt Q15303)
MAPK3 (human) = MAPK3 (human) (UniProt P27361)
[3] = molecular target: STK11 CAB39 STRADA (human) (UniProt Q9Y376+Q7RTN6+Q15831)
EEF2K (human) = EEF2K (human) (UniProt O00418)
BRSK1 (human) = BRSK1 (human) (UniProt Q8TDC3)
MAPK8 (human) = MAPK8 (human) (UniProt P45983)
RPS6KA3 KD1 KD2 (human) = RPS6KA3 KD1 KD2 (human) (UniProt P51812)
Chain of RPS6KA3 KD1 KD2 (human) (P51812 whole entry, looked up): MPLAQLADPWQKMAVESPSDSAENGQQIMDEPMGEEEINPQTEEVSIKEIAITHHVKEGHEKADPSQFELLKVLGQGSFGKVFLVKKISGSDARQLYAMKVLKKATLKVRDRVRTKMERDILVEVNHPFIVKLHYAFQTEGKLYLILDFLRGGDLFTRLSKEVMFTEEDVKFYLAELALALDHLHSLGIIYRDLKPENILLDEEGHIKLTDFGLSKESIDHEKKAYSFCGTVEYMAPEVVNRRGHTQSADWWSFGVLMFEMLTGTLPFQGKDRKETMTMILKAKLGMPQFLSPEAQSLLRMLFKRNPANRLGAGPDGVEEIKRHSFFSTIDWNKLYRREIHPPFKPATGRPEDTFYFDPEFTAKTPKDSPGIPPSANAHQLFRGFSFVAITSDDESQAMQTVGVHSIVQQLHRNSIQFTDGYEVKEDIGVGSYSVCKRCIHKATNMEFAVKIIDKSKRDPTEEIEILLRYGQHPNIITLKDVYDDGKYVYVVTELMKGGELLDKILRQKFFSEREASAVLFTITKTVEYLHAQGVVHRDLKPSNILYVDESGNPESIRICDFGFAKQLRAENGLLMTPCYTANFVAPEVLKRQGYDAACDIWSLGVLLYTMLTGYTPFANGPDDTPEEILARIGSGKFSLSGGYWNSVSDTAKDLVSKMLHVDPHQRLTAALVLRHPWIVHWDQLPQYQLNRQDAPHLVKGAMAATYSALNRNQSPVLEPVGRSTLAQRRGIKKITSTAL

Chain of IKBKB (human) (O14920 whole entry, looked up): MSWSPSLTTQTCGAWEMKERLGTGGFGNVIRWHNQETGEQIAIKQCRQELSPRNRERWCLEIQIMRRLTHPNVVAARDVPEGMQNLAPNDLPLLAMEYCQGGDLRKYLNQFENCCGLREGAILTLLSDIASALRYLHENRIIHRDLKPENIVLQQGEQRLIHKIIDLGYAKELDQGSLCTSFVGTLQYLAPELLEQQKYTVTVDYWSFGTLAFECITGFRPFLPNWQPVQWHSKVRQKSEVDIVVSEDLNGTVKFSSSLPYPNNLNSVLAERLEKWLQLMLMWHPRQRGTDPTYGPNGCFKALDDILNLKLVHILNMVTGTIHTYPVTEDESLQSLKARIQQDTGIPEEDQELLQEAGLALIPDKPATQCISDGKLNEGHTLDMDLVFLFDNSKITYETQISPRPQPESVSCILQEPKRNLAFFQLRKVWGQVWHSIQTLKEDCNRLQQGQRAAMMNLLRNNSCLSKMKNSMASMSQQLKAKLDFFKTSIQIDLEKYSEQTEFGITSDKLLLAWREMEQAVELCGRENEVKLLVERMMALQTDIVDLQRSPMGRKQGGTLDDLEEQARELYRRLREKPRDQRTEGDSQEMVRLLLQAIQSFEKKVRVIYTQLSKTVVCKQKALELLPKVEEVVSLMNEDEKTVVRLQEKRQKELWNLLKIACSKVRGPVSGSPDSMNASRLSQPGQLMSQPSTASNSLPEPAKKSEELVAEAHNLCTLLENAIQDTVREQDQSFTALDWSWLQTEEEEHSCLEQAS
Chain of EEF2K (human) (O00418 whole entry, looked up): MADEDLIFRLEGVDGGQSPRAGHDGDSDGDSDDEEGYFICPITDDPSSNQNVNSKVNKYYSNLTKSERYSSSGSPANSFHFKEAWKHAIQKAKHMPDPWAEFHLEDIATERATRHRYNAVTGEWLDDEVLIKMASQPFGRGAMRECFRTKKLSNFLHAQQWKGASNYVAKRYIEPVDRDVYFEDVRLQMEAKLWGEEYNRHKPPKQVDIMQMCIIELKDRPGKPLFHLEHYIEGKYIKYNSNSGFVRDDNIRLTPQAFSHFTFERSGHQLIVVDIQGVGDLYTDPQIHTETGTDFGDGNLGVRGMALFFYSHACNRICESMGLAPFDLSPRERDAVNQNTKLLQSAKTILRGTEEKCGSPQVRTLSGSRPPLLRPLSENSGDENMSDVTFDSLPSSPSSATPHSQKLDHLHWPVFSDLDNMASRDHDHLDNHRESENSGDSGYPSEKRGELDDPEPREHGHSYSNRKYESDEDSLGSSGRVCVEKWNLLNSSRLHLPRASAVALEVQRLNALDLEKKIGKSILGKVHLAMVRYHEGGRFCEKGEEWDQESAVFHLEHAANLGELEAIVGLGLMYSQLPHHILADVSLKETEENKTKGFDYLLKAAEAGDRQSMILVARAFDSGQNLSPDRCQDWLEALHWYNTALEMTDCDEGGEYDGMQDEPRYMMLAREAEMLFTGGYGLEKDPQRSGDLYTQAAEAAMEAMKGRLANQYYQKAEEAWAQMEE
Chain of SRPK1 (human) (Q96SB4 whole entry, looked up): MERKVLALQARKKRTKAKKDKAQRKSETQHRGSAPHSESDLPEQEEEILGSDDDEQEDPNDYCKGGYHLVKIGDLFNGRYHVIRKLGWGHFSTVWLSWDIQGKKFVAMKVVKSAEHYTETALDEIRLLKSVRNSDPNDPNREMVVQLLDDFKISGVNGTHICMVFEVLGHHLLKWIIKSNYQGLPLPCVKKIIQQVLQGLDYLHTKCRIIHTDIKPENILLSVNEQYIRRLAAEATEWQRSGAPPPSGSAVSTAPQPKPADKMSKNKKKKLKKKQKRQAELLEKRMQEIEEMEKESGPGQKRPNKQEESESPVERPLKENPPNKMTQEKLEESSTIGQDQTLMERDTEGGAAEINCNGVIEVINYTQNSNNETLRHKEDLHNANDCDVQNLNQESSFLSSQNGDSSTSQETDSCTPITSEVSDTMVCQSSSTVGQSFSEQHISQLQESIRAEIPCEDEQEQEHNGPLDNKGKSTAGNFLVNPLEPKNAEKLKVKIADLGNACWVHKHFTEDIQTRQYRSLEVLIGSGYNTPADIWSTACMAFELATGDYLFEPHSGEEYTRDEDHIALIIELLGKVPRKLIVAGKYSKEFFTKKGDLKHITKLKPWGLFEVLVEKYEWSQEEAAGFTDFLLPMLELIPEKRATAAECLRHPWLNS
Chain of MAPK9 (human) (P45984 whole entry, looked up): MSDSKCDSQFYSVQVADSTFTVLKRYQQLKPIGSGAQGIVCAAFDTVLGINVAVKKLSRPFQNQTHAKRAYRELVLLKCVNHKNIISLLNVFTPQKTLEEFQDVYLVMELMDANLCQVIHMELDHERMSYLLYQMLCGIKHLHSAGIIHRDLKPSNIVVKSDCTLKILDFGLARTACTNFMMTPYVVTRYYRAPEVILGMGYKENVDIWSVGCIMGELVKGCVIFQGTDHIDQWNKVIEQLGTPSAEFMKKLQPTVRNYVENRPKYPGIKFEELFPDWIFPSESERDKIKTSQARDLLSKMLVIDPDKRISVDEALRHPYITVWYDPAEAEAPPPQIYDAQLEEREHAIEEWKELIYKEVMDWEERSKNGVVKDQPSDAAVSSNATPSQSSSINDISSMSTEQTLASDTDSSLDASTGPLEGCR
Chain of MAPK1 (human) (P28482 whole entry, looked up): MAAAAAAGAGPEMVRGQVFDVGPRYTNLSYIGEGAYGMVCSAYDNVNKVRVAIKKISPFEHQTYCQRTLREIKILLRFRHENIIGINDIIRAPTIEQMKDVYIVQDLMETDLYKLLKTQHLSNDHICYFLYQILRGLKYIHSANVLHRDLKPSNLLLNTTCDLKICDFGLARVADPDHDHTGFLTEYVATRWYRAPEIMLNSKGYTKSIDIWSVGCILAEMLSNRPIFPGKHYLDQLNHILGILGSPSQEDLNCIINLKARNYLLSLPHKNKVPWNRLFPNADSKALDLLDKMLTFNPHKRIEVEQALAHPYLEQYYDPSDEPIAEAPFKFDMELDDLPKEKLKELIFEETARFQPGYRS
Chain of MAPK8 (human) (P45983 whole entry, looked up): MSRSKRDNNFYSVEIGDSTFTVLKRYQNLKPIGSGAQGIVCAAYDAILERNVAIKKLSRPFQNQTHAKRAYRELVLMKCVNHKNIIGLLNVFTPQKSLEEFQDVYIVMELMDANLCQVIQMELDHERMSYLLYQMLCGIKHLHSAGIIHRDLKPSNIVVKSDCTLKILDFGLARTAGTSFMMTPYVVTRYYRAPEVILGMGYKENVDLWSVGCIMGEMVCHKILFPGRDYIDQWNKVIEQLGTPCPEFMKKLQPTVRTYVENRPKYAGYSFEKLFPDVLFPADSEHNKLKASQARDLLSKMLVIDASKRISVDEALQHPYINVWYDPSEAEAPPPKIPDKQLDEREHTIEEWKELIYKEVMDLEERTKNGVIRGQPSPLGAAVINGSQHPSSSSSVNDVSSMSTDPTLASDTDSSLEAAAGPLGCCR
Chain of BRSK2 (human) (Q8IWQ3 whole entry, looked up): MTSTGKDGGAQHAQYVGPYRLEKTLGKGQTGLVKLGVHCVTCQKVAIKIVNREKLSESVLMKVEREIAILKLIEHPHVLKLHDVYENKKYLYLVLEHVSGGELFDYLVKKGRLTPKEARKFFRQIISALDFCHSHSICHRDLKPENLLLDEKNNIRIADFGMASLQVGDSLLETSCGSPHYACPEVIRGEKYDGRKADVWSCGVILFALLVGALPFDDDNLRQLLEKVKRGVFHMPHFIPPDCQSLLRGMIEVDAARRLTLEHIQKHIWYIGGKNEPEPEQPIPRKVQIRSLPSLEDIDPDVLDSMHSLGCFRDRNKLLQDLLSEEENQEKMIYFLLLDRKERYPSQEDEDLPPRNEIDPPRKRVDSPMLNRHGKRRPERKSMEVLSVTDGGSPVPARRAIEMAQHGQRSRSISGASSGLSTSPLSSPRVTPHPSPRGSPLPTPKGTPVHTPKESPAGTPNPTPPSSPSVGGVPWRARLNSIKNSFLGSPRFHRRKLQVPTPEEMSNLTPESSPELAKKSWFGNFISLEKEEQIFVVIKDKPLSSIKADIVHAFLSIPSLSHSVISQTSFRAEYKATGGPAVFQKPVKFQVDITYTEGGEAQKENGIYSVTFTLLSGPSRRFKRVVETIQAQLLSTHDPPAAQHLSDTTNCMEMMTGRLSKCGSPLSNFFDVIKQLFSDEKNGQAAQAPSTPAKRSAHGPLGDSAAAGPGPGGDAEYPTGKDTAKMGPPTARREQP

residual activity (BRSK2 (human); compound 1.0 µM): 106%
residual activity (BRSK2 (human); compound 10.0 µM): 87%
residual activity (MAPKAPK3 (human); compound 1.0 µM): 116%
residual activity (MAPKAPK3 (human); compound 10.0 µM): 85%
residual activity (HIPK1 (human); compound 1.0 µM): 111%
residual activity (HIPK1 (human); compound 10.0 µM): 105%
residual activity (TBK1 (human); compound 1.0 µM): 111%
residual activity (TBK1 (human); compound 10.0 µM): 99%
residual activity (MKNK2 (human); compound 1.0 µM): 76%
residual activity (MKNK2 (human); compound 10.0 µM): 99%
residual activity (PLK1 (human); compound 1.0 µM): 106%
residual activity (PLK1 (human); compound 10.0 µM): 102%
residual activity (PAK7 (human); compound 1.0 µM): 104%
residual activity (PAK7 (human); compound 10.0 µM): 96%
residual activity ([1]; compound 1.0 µM): 112%
residual activity ([1]; compound 10.0 µM): 106%
residual activity (CSNK1D (human); compound 1.0 µM): 103%
residual activity (CSNK1D (human); compound 10.0 µM): 95%
residual activity (MAPK9 (human); compound 1.0 µM): 128%
residual activity (MAPK9 (human); compound 10.0 µM): 117%
residual activity (RPS6KA5 KD1 KD2 (human); compound 1.0 µM): 109%
residual activity (RPS6KA5 KD1 KD2 (human); compound 10.0 µM): 95%
residual activity (FGFR1 (human); compound 1.0 µM): 110%
residual activity (FGFR1 (human); compound 10.0 µM): 115%
residual activity ([2]; compound 1.0 µM): 108%
residual activity ([2]; compound 10.0 µM): 94%
residual activity (BTK (human); compound 1.0 µM): 97%
residual activity (BTK (human); compound 10.0 µM): 74%
residual activity (AURKA (human)): 100%
residual activity (IKBKB (human); compound 1.0 µM): 107%
residual activity (IKBKB (human); compound 10.0 µM): 89%
residual activity (MAPK1 (human); compound 1.0 µM): 104%
residual activity (MAPK1 (human); compound 10.0 µM): 97%
residual activity (GSK3B (human); compound 1.0 µM): 101%
residual activity (GSK3B (human); compound 10.0 µM): 93%
residual activity (CSK (human); compound 1.0 µM): 119%
residual activity (CSK (human); compound 10.0 µM): 119%
residual activity (SRPK1 (human); compound 1.0 µM): 106%
residual activity (SRPK1 (human); compound 10.0 µM): 104%
residual activity (NEK6 (human); compound 1.0 µM): 98%
residual activity (NEK6 (human); compound 10.0 µM): 97%
residual activity (HIPK3 (human); compound 1.0 µM): 98%
residual activity (HIPK3 (human); compound 10.0 µM): 103%
residual activity (ERBB4 (human); compound 1.0 µM): 100%
residual activity (ERBB4 (human); compound 10.0 µM): 77%
residual activity (MAPK3 (human); compound 1.0 µM): 103%
residual activity (MAPK3 (human); compound 10.0 µM): 110%
residual activity ([3]; compound 1.0 µM): 124%
residual activity ([3]; compound 10.0 µM): 117%
residual activity (EEF2K (human); compound 1.0 µM): 95%
residual activity (EEF2K (human); compound 10.0 µM): 109%
residual activity (BRSK1 (human); compound 1.0 µM): 97%
residual activity (BRSK1 (human); compound 10.0 µM): 92%
residual activity (MAPK8 (human); compound 1.0 µM): 96%
residual activity (MAPK8 (human); compound 10.0 µM): 96%
residual activity (RPS6KA3 KD1 KD2 (human); compound 1.0 µM): 97%
residual activity (RPS6KA3 KD1 KD2 (human); compound 10.0 µM): 91%
Structure (SMILES): O=C(O)c1cc(N=Nc2ccc(S(=O)(=O)Nc3ccccn3)cc2)ccc1O
residual activity (MAPK15 (human); compound 1.0 µM): 111%
residual activity (MAPK15 (human); compound 10.0 µM): 109%

residual activity (BRSK2 (human); compound 1.0 µM): 102%
residual activity (BRSK2 (human); compound 10.0 µM): 100%
residual activity (MAPKAPK3 (human); compound 1.0 µM): 91%
residual activity (MAPKAPK3 (human); compound 10.0 µM): 130%
residual activity (MKNK2 (human); compound 1.0 µM): 103%
residual activity (MKNK2 (human); compound 10.0 µM): 76%
residual activity (PLK1 (human); compound 1.0 µM): 96%
residual activity (PLK1 (human); compound 10.0 µM): 106%
residual activity (PAK7 (human); compound 1.0 µM): 139%
residual activity (PAK7 (human); compound 10.0 µM): 124%
residual activity ([1]; compound 1.0 µM): 100%
residual activity ([1]; compound 10.0 µM): 114%
residual activity (CSNK1D (human); compound 1.0 µM): 77%
residual activity (CSNK1D (human); compound 10.0 µM): 87%
residual activity (MAPK9 (human); compound 1.0 µM): 104%
residual activity (MAPK9 (human); compound 10.0 µM): 117%
residual activity (RPS6KA5 KD1 KD2 (human); compound 1.0 µM): 92%
residual activity (RPS6KA5 KD1 KD2 (human); compound 10.0 µM): 100%
residual activity (IKBKB (human); compound 1.0 µM): 101%
residual activity (IKBKB (human); compound 10.0 µM): 101%
residual activity (MAPK1 (human); compound 1.0 µM): 116%
residual activity (MAPK1 (human); compound 10.0 µM): 111%
residual activity (GSK3B (human); compound 1.0 µM): 114%
residual activity (GSK3B (human); compound 10.0 µM): 133%
residual activity (CSK (human); compound 1.0 µM): 97%
residual activity (CSK (human); compound 10.0 µM): 85%
residual activity (SRPK1 (human); compound 1.0 µM): 107%
residual activity (SRPK1 (human); compound 10.0 µM): 98%
residual activity (NEK6 (human); compound 1.0 µM): 73%
residual activity (NEK6 (human); compound 10.0 µM): 81%
residual activity (HIPK3 (human); compound 1.0 µM): 136%
residual activity (HIPK3 (human); compound 10.0 µM): 138%
residual activity (MAPK3 (human); compound 1.0 µM): 114%
residual activity (MAPK3 (human); compound 10.0 µM): 108%
residual activity (EEF2K (human); compound 1.0 µM): 97%
residual activity (EEF2K (human); compound 10.0 µM): 96%
residual activity (MAPK8 (human); compound 1.0 µM): 99%
residual activity (MAPK8 (human); compound 10.0 µM): 97%
residual activity (RPS6KA3 KD1 KD2 (human); compound 1.0 µM): 88%
residual activity (RPS6KA3 KD1 KD2 (human); compound 10.0 µM): 99%
Structure (SMILES): Cc1cccc(Nc2nn(C)c3ncnc(N)c23)c1
residual activity (MAPK15 (human); compound 1.0 µM): 76%
residual activity (MAPK15 (human); compound 10.0 µM): 93%

— the kinase profiling compilation of Christmann-Franck et al. (2016)
